The record followed here is patent US6919377B2, “Cyclohexylamine derivative as subtype selective NMDA receptor antagonists” (Warner Lambert Company LLC, priority 2000, dated 2005).

Structures are written as SMILES. Counter-ions that a name gives are not always drawn. Like-named read-outs stand apart in the source and are kept apart here.

The melting point is the temperature, or range, at which the solid turns liquid.

One series addresses NR1a/NR2B (Rattus norvegicus, UniProt P35439+Q00960). Put plainly: Electrophysiological assay at NMDA receptor subunits expressed in Xenopus oocytes (two-electrode voltage clamp). It is filed as cell-based. On the procedure: The clones were transformed into appropriate host bacteria and plasmid preparations were made with conventional DNA purification techniques. A sample of each clone was linearized by restriction enzyme digestion […] was synthesized with T3 RNA polymerase. The cRNA was diluted to 400 ng/μL and stored in 1 μL aliquots at −80° C. until injection.
The Xenopus Oocyte Expression System. […] Follicle-enclosed oocytes were micro-injected with 1:1 mixtures of NR1A:NR2A, 2B or 2C.; injecting 1 to 10 ng of RNA encoding each receptor subunit. NR1A encoding RNA was injected alone at ˜20 ng. Oocytes were stored in Barth's medium containing (in mM): NaCl, 88; KCl, 1; CaCl2, 0.41; Ca (NO3)2, 0.33; MgSO4, 0.82; NaHCO3, 2.4; HEPES 5, pH 7.4, with 0.11 mg/ml gentamicin sulphate. While oocytes were still surrounded by enveloping ovarian tissues, the Barth's medium was supplemented with 0.1% bovine serum.
Drugs were applied by bath perfusion. Using oocytes expressing different subunit combinations of NMDA receptor, NMDA currents were activated by co-application of glutamate (100 μM) and glycine (1-100 μM). Inhibitory potency of the novel antagonists was assessed on responses elicited by fixed concentrations of glutamate and glycine, by measuring reductions in current induced by progressively increasing concentrations of antagonist.
Concentration-inhibition curves were fit with Equation 1. […] For incomplete curves analysis by fitting was unreliable and IC50 values were calculated by simple regression over linear portions of the curves (Origin: Microcal Software).
(Two-electrode voltage clamp is typically applied to oocytes expressing channels or transporters.)

Where [1] appears, read: Table 2, head names no subunit, electrophysiological assay results, read-out: IC50.
Where [2] appears, read: Table 1, cloned rat NMDA receptor subunits in Xenopus oocytes, currents activated by glutamate (100 μM) and glycine (1-100 μM), read-out: NR1a/NR2B Oocyte IC50.
[3] abbreviates: Table 3, cloned rat NMDA receptor subunits in Xenopus oocytes, read-out: NR1a/NR2B Oocyte IC50.

Chain of NR1a/NR2B (Q00960 27-1482, other chains not shown): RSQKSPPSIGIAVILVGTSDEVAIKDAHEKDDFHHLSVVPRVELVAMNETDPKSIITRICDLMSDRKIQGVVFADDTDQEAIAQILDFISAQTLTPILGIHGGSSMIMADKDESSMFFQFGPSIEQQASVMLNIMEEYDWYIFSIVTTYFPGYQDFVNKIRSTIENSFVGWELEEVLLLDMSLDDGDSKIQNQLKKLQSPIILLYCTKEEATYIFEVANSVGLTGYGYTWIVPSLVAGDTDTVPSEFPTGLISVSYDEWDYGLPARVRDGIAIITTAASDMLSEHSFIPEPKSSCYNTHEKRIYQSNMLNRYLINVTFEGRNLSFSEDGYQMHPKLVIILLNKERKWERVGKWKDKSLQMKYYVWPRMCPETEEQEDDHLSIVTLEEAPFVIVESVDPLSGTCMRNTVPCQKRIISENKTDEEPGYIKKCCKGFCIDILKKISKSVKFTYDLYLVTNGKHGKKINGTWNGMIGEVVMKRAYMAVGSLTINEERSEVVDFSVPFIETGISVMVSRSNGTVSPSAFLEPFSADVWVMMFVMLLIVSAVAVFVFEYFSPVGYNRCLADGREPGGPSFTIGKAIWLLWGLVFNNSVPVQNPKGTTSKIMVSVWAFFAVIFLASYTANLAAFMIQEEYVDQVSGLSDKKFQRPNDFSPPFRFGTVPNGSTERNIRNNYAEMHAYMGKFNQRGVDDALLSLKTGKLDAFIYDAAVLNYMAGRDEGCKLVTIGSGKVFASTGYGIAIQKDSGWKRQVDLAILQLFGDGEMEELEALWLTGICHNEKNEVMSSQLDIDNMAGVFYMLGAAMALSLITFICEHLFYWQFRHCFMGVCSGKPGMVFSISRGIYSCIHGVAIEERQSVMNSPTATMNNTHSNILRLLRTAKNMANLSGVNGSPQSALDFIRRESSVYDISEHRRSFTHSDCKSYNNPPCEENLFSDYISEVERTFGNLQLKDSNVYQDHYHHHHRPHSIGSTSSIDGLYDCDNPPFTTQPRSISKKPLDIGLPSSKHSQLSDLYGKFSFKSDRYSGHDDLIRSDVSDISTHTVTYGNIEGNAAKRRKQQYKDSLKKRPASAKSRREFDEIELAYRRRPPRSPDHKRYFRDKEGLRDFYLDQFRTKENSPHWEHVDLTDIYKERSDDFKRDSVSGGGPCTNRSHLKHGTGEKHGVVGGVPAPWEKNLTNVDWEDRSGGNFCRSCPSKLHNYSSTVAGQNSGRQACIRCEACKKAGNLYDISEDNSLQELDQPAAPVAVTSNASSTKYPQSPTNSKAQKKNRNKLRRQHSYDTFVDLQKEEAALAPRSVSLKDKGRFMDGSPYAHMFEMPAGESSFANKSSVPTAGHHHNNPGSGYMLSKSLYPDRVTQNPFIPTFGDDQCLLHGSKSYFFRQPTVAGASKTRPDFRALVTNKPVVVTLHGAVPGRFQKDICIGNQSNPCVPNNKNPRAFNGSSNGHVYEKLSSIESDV

`C[C@@H](Cc1ccccc1)N[C@H]1CC[C@H](c2ccc(O)cc2)CC1` [Example 13, trans-4-[4-((S)-1-Methyl-2-phenylethylamino)cyclohexyl]phenol]: the melting point fell in the range of 183 to 187 °C. The IC50 at NR1a/NR2B (setting [1]) was determined as 16000 nM.
With `Oc1ccc([C@H]2CC[C@H](N(CCCc3ccccc3)Cc3ccccc3)CC2)cc1` (as salt: HCl) [Example 29, 4-{4-[benzyl(3-phenylpropyl)amino]cyclohexyl}phenol], the melting point fell in the range of 259 to 264 °C.
In turn, `O=C(CCc1ccccc1)N[C@H]1CC[C@H](c2ccc(O)cc2)CC1` [Example 21, Trans-N-[4-(4-Hydroxyphenyl)cyclohexyl]-3-phenylpropionamide] displayed a melting point of 201 to 206 °C. Further, the IC50 at NR1a/NR2B (setting [1]) amounted to 70 nM.
Turning to `Oc1ccc([C@H]2CC[C@@H](NCCCc3ccccc3)CC2)cc1` [Example 2a, cis-4-[4-(3-Phenylpropylamino)cyclohexyl]phenol], the IC50 on NR1a/NR2B (setting [2]) is 600 nM.
For `Oc1ccc([C@H]2CC[C@H](NCCNc3ccccc3)CC2)cc1` (as salt: maleate) [Example 25, Trans-4-[4-(2-phenylaminoethylamino)cyclohexyl]phenol], the melting point fell in the range of 180 to 184 °C.
Take `Oc1ccc([C@H]2CC[C@H](NCCCCc3ccccc3)CC2)cc1` [Example 1b, trans-4-[4-(4-Phenylbutylamino)cyclohexyl]phenol]: the IC50 on NR1a/NR2B (setting [2]) turned out to be 35 nM.
On to `Oc1ccc([C@H]2CC[C@H](NCCCCCc3ccccc3)CC2)cc1` [Example 9, 4-[4-(5-Phenylpentylamino)cyclohexyl]phenol], for which the IC50 on NR1a/NR2B (setting [2]) stood at 350 nM.
Compound `CN(CCOc1ccccc1)[C@H]1CC[C@H](c2ccc(O)cc2)CC1` (as salt: salt) [Example 30, 4-{4-[methyl(2-phenoxyethyl)amino]cyclohexyl}phenol] showed a melting point of 216 to 220 °C.
With `CC(C)N(CCCc1ccccc1)[C@H]1CC[C@H](c2ccc(O)cc2)CC1` (as salt: salt) [Example 27, Trans-4-{4-[N-isopropyl-N-(3-phenylpropyl)amino]cyclohexyl}phenol], the melting point lay within 146 to 154 °C.
With `Oc1ccc([C@H]2CC[C@H](NCCOc3ccccc3)CC2)cc1` [Example 11b, trans-4-[4-(2-Phenoxyethylamino)cyclohexyl]phenol], the IC50 on NR1a/NR2B (setting [1]) stood at 20 nM.
`CCN(CCCc1ccccc1)[C@H]1CC[C@H](c2ccc(O)c(CN)c2)CC1` (as salt: HCl) [Example 31, 2-aminomethyl-4-{4-[ethyl(3-phenylpropyl)amino]cyclohexyl}phenol] registered a melting point of 168 to 173 °C.
Compound `Oc1ccc([C@H]2CC[C@@H](NCCCCc3ccccc3)CC2)cc1` [Example 1a, cis-4-[4-(4-Phenylbutylamino)cyclohexyl]phenol] registered a melting point of 128 to 131 °C. Further, the IC50 at NR1a/NR2B (setting [2]) came out at 900 nM.
Take `OC[C@@H](Cc1ccccc1)N[C@H]1CC[C@@H](c2ccc(O)cc2)CC1` [Example 10a, cis-4-[4-((R)-1-Hydroxymethyl-2-phenylethylamino)cyclohexyl]phenol]: the IC50 on NR1a/NR2B (setting [1]) came to 29000 nM.
On to `Oc1ccc([C@H]2CC[C@H](NCC#Cc3ccccc3)CC2)cc1` [Example 23, Trans-4-[4-(3-phenylprop-2-ynylamino)cyclohexyl]phenol], for which the IC50 on NR1a/NR2B (setting [1]) is 50 nM.
For `Oc1ccc([C@H]2CC[C@H](NCc3cccnc3)CC2)cc1` [Example 7b, trans-4-{4-[(Pyridin-3-ylmethyl)amino]cyclohexyl}phenol], the IC50 at NR1a/NR2B (setting [3]) worked out at 100000 nM.
With `CC(CCc1ccccc1)N[C@H]1CC[C@H](c2ccc(O)cc2)CC1` (stereo partly drawn) [Example 6b, trans-4-[4-(1-Methyl-3-phenylpropylamino)cyclohexyl]phenol], the IC50 at NR1a/NR2B (setting [1]) amounted to 100 nM.
`C[C@@H](CCc1ccccc1)N[C@H]1CC[C@H](c2ccc(O)cc2)CC1` [Example 6d, trans-4-[4-((S)-1-Methyl-3-phenylpropylamino)cyclohexyl]phenol] registered a melting point of 165 to 170 °C. Also, the IC50 on NR1a/NR2B (setting [1]) stood at 70 nM.
Take `Oc1ccc([C@H]2CC[C@@H](NCc3cccnc3)CC2)cc1` [Example 7a, cis-4-{4-[(Pyridin-3-ylmethyl)amino]cyclohexyl}phenol]: the IC50 on NR1a/NR2B (setting [3]) stood at 135000 nM.
`CC(CCc1ccccc1)N[C@H]1CC[C@@H](c2ccc(O)cc2)CC1` (stereo partly drawn) [Example 6a, cis-4-[4-(1-Methyl-3-phenylpropylamino)cyclohexyl]phenol]: the IC50 on NR1a/NR2B (setting [1]) is 600 nM.
In the case of `CC(=O)N(Cc1ccccc1)[C@H]1CC[C@H](c2ccc(O)cc2)CC1` [Example 16, trans-N-Benzyl-N-[4-(4-hydroxyphenyl)cyclohexyl]acetamide], the melting point was 227 to 235 °C. For the same compound, the IC50 on NR1a/NR2B (setting [1]) stood at 200000 nM.
Taken in the same sequence, the figures for `CC(C)(Oc1ccccc1)C(=O)N[C@H]1CC[C@H](c2ccc(O)cc2)CC1` [Example 22, Trans-N-[4-(4-Hydroxyphenyl)cyclohexyl]-2-methyl-2-phenoxy-propionamide] were 114 to 117 °C and 301000 nM.
For `OC[C@@H](Cc1ccccc1)N[C@H]1CC[C@H](c2ccc(O)cc2)CC1` [Example 10b, trans-4-[4-((R)-1-Hydroxymethyl-2-phenylethylamino)cyclohexyl]phenol], the IC50 at NR1a/NR2B (setting [1]) was found to be 5000 nM.
For `Oc1ccc([C@H]2CC[C@H](NCCCCCc3ccccc3)CC2)cc1` (as salt: HCl) [Example 9, 4-[4-(5-Phenylpentylamino)cyclohexyl]phenol], the melting point was in the range of 252 to 260 °C.
Turning to `Oc1ccc([C@H]2CC[C@H](NCCCc3ccccn3)CC2)cc1` [Example 15b, trans-4′-(3-Pyridin-2-ylpropylamino)cyclohexylphenol], on NR1a/NR2B (setting [3]), the IC50 worked out at 530 nM.
Take `Oc1ccc([C@H]2CC[C@H](NCCSc3ccccc3)CC2)cc1` [Example 24, 4-[4-(2-Phenylsulfanylethylamino)cyclohexyl]phenol]: the IC50 on NR1a/NR2B (setting [1]) was 40 nM.
As to `Oc1ccc([C@H]2CC[C@@H](NCCCc3ccccn3)CC2)cc1` [Example 15a, cis-4-[4-(3-Pyridin-2-ylpropylamino)cyclohexyl]phenol], the IC50 on NR1a/NR2B (setting [3]) was determined as 11500 nM.
As for `Oc1ccc([C@H]2CC[C@H](NCCc3ccccc3)CC2)cc1` [Example 3b, trans-4-(4-Phenethylamiocyclohexyl)phenol], the IC50 on NR1a/NR2B (setting [2]) worked out at 450 nM.
For the compound `Oc1ccc([C@H]2CC[C@H](NCCCc3ccccc3)CC2)cc1` [Example 2b, trans-4-[4-(3-Phenylpropylamino)cyclohexyl]phenol], the IC50 at NR1a/NR2B (setting [2]) came out at 34 nM.
As to `COC(=O)N(Cc1ccccc1)[C@H]1CC[C@H](c2ccc(O)cc2)CC1` [Example 19, Trans-N-benzyl-N-[4-(4-hydroxyphenyl)cyclohexyl]carbamic acid methyl ester], the melting point fell in the range of 61 to 66 °C. On NR1a/NR2B (setting [1]), the IC50 came out at 240000 nM.
On the same counts, the results for `COC(=O)N(CCCc1ccccc1)[C@H]1CC[C@H](c2ccc(O)cc2)CC1` [Example 18, Trans-N-[4-(4-Hydroxyphenyl)cyclohexyl]-N-(3-phenylpropyl)carbamic acid methyl ester] are 128 to 133 °C and 50 nM.
Take `COc1ccc(CCCN[C@H]2CC[C@H](c3ccc(O)cc3)CC2)cc1` (as salt: HCl) [Example 28, Trans-4-{4-[3-(4-methoxyphenyl)propylamino]cyclohexyl}phenol]: the melting point is 235 to 241 °C.
On to `C[C@H](CCc1ccccc1)N[C@H]1CC[C@H](c2ccc(O)cc2)CC1` [Example 6c, trans-4-[4-((R)-1-Methyl-3-phenylpropylamino)cyclohexyl]phenol], for which the melting point was in the range of 152 to 160 °C. Besides, the IC50 at NR1a/NR2B (setting [1]) stood at 60 nM.
Regarding `Oc1ccc([C@H]2CC[C@@H](NCCOc3ccccc3)CC2)cc1` [Example 11a, cis-4-[4-(2-Phenoxyethylamino)cyclohexyl]phenol], at NR1a/NR2B (setting [1]), the IC50 came to 2000 nM.
As for `Oc1ccc([C@H]2CC[C@H](NCCNc3ccccc3)CC2)cc1` [Example 25, Trans-4-[4-(2-phenylaminoethylamino)cyclohexyl]phenol], the IC50 at NR1a/NR2B (setting [1]) worked out at 50 nM.
In the case of `Oc1ccc([C@H]2CC[C@@H](NCCc3ccccc3)CC2)cc1` [Example 3a, cis-4-(4-Phenethylaminocyclohexyl)phenol], the melting point was 155 to 160 °C. In addition, the IC50 at NR1a/NR2B (setting [2]) amounted to 830 nM.
Turning to `Oc1ccc([C@H]2CC[C@H](NCCc3ccc(F)cc3)CC2)cc1` [Example 5b, trans-4-{4-[2-(4-Fluorophenyl)ethylamino]cyclohexyl}phenol], the IC50 on NR1a/NR2B (Table 4, cloned rat NMDA receptor subunits in Xenopus oocytes, read-out: NR1a/NR2B Oocyte IC50) was found to be 750 nM.
Turning to `CCN(CCCc1ccccc1)[C@H]1CC[C@H](c2ccc(O)cc2)CC1` (as salt: salt) [Example 26, Trans-4-{4-[N-ethyl-N-(3-phenylpropyl)amino]cyclohexyl) phenol], the melting point was in the range of 192 to 194 °C.
